{"source": "patent US11249161B2", "about": "“Magnetic resonance method for detecting molecular binding with enhanced sensitivity” (The Johns Hopkins University, priority 2017, dated 2022)", "key": {"[1]": {"target": "bovine serum albumin (BSA) (Bos taurus, UniProt P02769)", "sequence (P02769 25-607)": "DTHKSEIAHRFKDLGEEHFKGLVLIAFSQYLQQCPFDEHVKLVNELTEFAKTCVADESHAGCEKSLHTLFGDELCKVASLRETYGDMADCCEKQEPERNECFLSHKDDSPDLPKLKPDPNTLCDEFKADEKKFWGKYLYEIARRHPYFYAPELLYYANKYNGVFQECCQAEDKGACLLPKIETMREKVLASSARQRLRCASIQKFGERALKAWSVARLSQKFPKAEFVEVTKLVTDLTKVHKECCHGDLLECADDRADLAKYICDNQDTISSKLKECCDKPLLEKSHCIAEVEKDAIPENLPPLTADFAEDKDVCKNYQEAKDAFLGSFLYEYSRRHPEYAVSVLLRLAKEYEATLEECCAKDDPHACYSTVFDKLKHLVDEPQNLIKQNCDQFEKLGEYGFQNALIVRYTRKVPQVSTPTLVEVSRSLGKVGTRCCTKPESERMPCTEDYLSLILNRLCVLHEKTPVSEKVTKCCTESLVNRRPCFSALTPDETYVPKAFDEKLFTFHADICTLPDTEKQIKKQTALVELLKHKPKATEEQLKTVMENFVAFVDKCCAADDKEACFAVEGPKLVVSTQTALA", "description": "(§1) Maps were generated by mapping the signal difference (pre minus post infusion) between the partial spectra (−1.0 to −2.0 ppm). Field correction for static field (B0) inhomogeneities was done by creating field maps from the low power Z-spectra acquired in our study and shifting the Z-spectra voxel wise according to the WASSR method^27."}, "mouse brain": {"test_system": "mouse brain", "assay": "In vivo IMMOBILISE MRI in mice after caffeine infusion", "procedure": "All experiments were performed in accordance with Institutional Animal Care and Use Committee guidelines and approved by the Johns Hopkins University Animal Care and Use Committee. Eight 6-8 week old female BALB/c mice, were anesthetized by isoflurane and kept warm with a heating pad and kept in place with a stereotactic holder. […] A home-built catheter was connected to a syringe infusion through PE-50 tubing.\nMRI experiments were acquired on a 11.7 T Bruker Biospec preclinical scanner (Bruker, Ettlingen, Germany) equipped with a 72 mm quadrature volume resonator for RF transmission and a 2×2 mouse phased array coil for RF reception. The saturation preparation consisted of a 3 s, 0.5 μT CW saturation pulse followed by a two-shot FSE readout. The FSE readout parameters were TR/TE=6000/4 ms, a 64×64 acquisition matrix across a field of view of 17×17 mm and slice thickness of 1 mm. […] Acquisition of each partial Z-spectra took 105 s and was continued for 1-hour post bolus and then a complete Z-spectrum was again acquired.\nas §1"}}}
{"smiles": "Cn1c(=O)c2c(ncn2C)n(C)c1=O", "note": "[caffeine]", "values": [{"measurement": "factor in sensitivity enhancement", "setting": "[1]", "value": "~1000"}, {"measurement": "concentration of caffeine in mouse blood (estimate)", "setting": "mouse brain; 2 mL blood, 50 μL of 100 mM caffeine infused", "value": "about 2.5 mM"}, {"measurement": "change in water signal (detection sensitivity)", "setting": "mouse brain; mice, after caffeine infusion, about 2.5 mM in blood", "value": "1-3%"}, {"measurement": "factor of enhancement", "setting": "mouse brain; mice, in vivo", "value": "30-100"}]}
